The source of these data is patent US8134015B2, “Compound inhibiting in vivo phosphorous transport and medicine containing the same” (Kyowa Hakko Kirin Co., Ltd., priority 2003, dated 2012).

The target in the first assay is T1, rat NaPi-2b (Rattus norvegicus, UniProt Q9JJ09).
T1 construct: expressed in transfected cells; host or cells: Xenopus oocytes injected with cRNA
T1 sequence (Q9JJ09 1-695): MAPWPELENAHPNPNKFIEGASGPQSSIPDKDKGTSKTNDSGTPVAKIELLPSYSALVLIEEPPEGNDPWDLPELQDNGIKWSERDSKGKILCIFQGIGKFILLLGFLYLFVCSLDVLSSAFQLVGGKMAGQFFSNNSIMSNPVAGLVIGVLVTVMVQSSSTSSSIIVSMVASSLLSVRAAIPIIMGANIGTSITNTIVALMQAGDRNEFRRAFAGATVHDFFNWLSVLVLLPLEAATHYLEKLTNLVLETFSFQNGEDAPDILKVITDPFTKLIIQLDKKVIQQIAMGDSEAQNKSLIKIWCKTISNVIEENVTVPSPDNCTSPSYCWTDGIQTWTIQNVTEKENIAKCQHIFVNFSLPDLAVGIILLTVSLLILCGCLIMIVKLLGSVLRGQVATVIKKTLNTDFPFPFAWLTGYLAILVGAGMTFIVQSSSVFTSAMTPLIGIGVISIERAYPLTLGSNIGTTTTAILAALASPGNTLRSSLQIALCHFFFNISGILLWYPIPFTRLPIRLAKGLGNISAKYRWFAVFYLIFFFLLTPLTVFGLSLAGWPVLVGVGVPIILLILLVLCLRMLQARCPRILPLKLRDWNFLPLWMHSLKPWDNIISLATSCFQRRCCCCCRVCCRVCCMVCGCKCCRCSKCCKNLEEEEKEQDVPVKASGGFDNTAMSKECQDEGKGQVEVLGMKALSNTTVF
Kind of assay: Sodium-dependent phosphate uptake of Xenopus oocytes which expressed NaPi-2b (32P). Type of assay: cell-based. The conditions noted are these: Xenopus oocytes expressing rat NaPi-2b, 32P radioactive phosphorus; read-out: IC50 (phosphate uptake inhibitory activity). A digest of the protocol: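 Oocytes injected with rat NaPi-2b cRNA, cultured 2 d, then 32P uptake measured with compound. Values: % inhibition at 300 and 100 μM, both from one inhibition curve.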
With `CCN(CC)CCN(C)Cc1cccc(C(=O)Nc2ccc(OCC3CCCCC3)cc2C(=O)N/N=C/c2ccc(OC)cc2)c1` [Compound 1050, N-[4-Cyclohexylmethoxy-2-(4-methoxy-benzylidene-hydrazinocarbonyl)-phenyl]-3-{[(2-diethylamino-ethyl)-methyl-amino]-methyl}-benzamide], the IC50 (in general, the concentration that gives 50% inhibition) stood at 1.42 µM.
The same measure, in the same setting: the same measure for `CCN(CC)CCN(C)Cc1cccc(C(=O)Nc2sccc2C(=O)N/N=C/c2ccc(C)c(C)c2)c1` [Compound 664, 3-{[(2-Diethylamino-ethyl)-methyl-amino]-methyl}-N-[3-(3,4-dimethyl-benzylidene-hydrazinocarbonyl)-thiophen-2-yl]-benzamide]: 15.1 µM.
Consider `Cc1cccc(/C=N/NC(=O)c2ccccc2NC(=O)c2cc(C)oc2C)c1` [Compound 516, 2,5-Dimethyl-furan-3-carboxylic acid [2-(3-methyl-benzylidene-hydrazinocarbonyl)-phenyl]-amide], for which the IC50 is 2.13 µM.
With `O=C(Nc1ccccc1C(=O)N/N=C/c1ccc(F)cc1)c1cccc(F)c1` [Compound 82, 3-Fluoro-N-[2-(4-fluoro-benzylidene-hydrazinocarbonyl)-phenyl]-benzamide], the IC50 was determined as 6.03 µM.
Same read-out and setting: the same measure for `COc1ccc(/C=N/NC(=O)c2c(NC(=O)c3cccc(CN4CCC(CO)CC4)c3)sc3c2CCCC3)cc1` [Compound 644, 3-(4-Hydroxymethyl-piperidin-1-ylmethyl)-N-[3-(4-methoxy-benzylidene-hydrazinocarbonyl)-4,5,6,7-tetrahydro-benzo-[b]thiophen-2-yl]-benzamide]: 5.91 µM; for `Cc1ccc(/C=N/NC(=O)c2ccccc2NC(=O)c2cccnc2)cc1` [Compound 132, N-[2-(4-Methyl-benzylidene-hydrazinocarbonyl)-phenyl]-nicotinamide]: 0.75 µM; for `O=C(Nc1ccc(Br)cc1C(=O)N/N=C/c1cccc(F)c1)c1ccc(CSCCCO)cc1` [Compound 277, N-[4-Bromo-2-(3-fluoro-benzylidene-hydrazinocarbonyl)-phenyl]-4-(3-hydroxy-propylsulfanylmethyl)-benzamide]: 1.6 µM.
Regarding `COc1ccc(/C=N/NC(=O)c2c(C)csc2NC(=O)c2cccc(CN3CCC(CO)CC3)c2)cc1` [Compound 604, 3-(4-Hydroxymethyl-piperidin-1-ylmethyl)-N-[3-(4-methoxy-benzylidene-hydrazinocarbonyl)-4-methyl-thiophen-2-yl]-benzamide], the IC50 came out at 9.23 µM.
Take `Cc1ccc(/C=N/NC(=O)c2c(C)csc2NC(=O)c2cccc(CSc3nc[nH]n3)c2)cc1C` [Compound 551, N-[3-(3,4-Dimethyl-benzylidene-hydrazinocarbonyl)-4-methyl-thiophen-2-yl]-3-(1H-[1,2,4]triazol-3-ylsulfanylmethyl)-benzamide]: the IC50 was 0.47 µM.
On to `COc1ccc(C(=O)Nc2ccc(Cl)cc2C(=O)N/N=C/c2cccc(C)c2)cc1OC` [Compound 67, N-[4-Chloro-2-(3-methyl-benzylidene-hydrazinocarbonyl)-phenyl]-3,4-dimethoxy-benzamide], for which the IC50 came out at 0.65 µM.
Take `CCN(CC)CCN(C)Cc1cccc(C(=O)Nc2ccc(Cl)cc2C(=O)N/N=C/c2cccc(C)c2)c1` [Compound 381, N-[4-Chloro-2-(3-methyl-benzylidene-hydrazinocarbonyl)-phenyl]-3-{[(2-diethylamino-ethyl)-methyl-amino]-methyl}-benzamide]: the IC50 was found to be 1 µM.
Regarding `COc1cccc(/C=N/NC(=O)c2cc(Cl)ccc2NC(=O)c2ccc(CN(C)CCO)cc2)c1` [Compound 418, N-[4-Chloro-2-(3-methoxy-benzylidene-hydrazinocarbonyl)-phenyl]-4-{[(2-hydroxy-ethyl)-methyl-amino]-methyl}-benzamide], the IC50 was 9.38 µM.
`CCN1CC(NCc2ccc(-c3nc4ccc(Br)cc4c(=O)n3/N=C/c3ccc(C)c(C)c3)cc2)CN1CC` [Compound 749, 6-Bromo-2-{4-[(1,2-diethyl-pyrazolidin-4-ylamino)-methyl]-phenyl}-3-[(3,4-dimethyl-benzylidene)-amino]-3H-quinazolin-4-one]: the IC50 came out at 9.05 µM.
Turning to `COc1ccc(/C=N/NC(=O)c2c(NC(=O)c3cccc(CN4CCN(CCO)CC4)c3)sc3c2CCCC3)cc1` [Compound 626, 3-[4-(2-Hydroxy-ethyl)-piperazin-1-ylmethyl]-N-[3-(4-methoxy-benzylidene-hydrazinocarbonyl)-4,5,6,7-tetrahydro-benzo-[b]thiophen-2-yl]-benzamide], the IC50 is < 3 µM.
Consider `CCN(CC)CCN(C)Cc1cccc(C(=O)Nc2sc3c(c2C(=O)N/N=C/c2ccc(C)cc2)CCCC3)c1` [Compound 610, 3-{[(2-Diethylamino-ethyl)-methyl-amino]-methyl}-N-[3-(4-methyl-benzylidene-hydrazinocarbonyl)-4,5,6,7-tetrahydro-benzo-[b]thiophen-2-yl]-benzamide], for which the IC50 worked out at 1.82 µM.
With `Cc1ccc(/C=N/n2c(-c3cccc(CSCCO)c3)nc3ccc(Br)cc3c2=O)cc1` [Compound 696, 6-Bromo-2-[3-(2-hydroxy-ethylsulfanylmethyl)-phenyl]-3-[(4-methyl-benzylidene-)-amino]-3H-quinazolin-4-one], the IC50 came to 4.47 µM.
For the compound `O=C(Nc1ccc(Br)cc1C(=O)N/N=C/c1ccc(Cl)c(C(F)(F)F)c1)c1ccc(CN2CCC(CCO)CC2)cc1` [Compound 745, N-[4-Bromo-2-(4-chloro-3-trifluoromethyl-benzylidene-hydrazinocarbonyl)-phenyl]-4-[4-(2-hydroxy-ethyl)-piperidin-1-ylmethyl]-benzamide], the IC50 was 6.12 µM.
As to `Cc1ccc(/C=N/NC(=O)c2cc(F)ccc2NC(=O)c2cc(F)ccc2NC(=O)c2cccc(CN(CC(C)O)CC(C)O)c2)cc1C` (stereo not shown) [Compound 986, 2-(3-{[Bis-(2-hydroxy-propyl)-amino]-methyl}-benzoylamino)-N-[2-(3,4-dimethyl-benzylidene-hydrazinocarbonyl)-4-fluoro-phenyl]-5-fluoro-benzamide], the IC50 was 29 µM.
Consider `Cc1cccc(/C=N/NC(=O)c2ccccc2NC(=O)c2ccc(F)cc2)c1` [Compound 78, 4-Fluoro-N-[2-(3-methyl-benzylidene-hydrazinocarbonyl)-phenyl]-benzamide], for which the IC50 was determined as 7.17 µM.

The assay is the same for the next values; noted with them: phosphate uptake, oocytes expressing rat NaPi-2b; 300 μM, determined from inhibition curve.
With `CCN(CC)CCN(C)Cc1cccc(-c2nc3sc4c(c3c(=O)n2/N=C/c2ccc(Cl)c(C(F)(F)F)c2)CCCC4)c1` [Compound 674, 3-[(4-Chloro-3-trifluoromethyl-benzylidene)-amino]-2-(3-{[(2-diethylamino-ethyl)-methyl-amino]-methyl}-phenyl)-5,6,7,8-tetrahydro-3H-benzo[4,5]thieno[2,3-d]pyrimidin-4-one], the inhibition (as a rule, the percentage by which the read-out fell short of the control) at 300 µM came to 85.1%.
`O=C(Nc1ccc(Cl)cc1C(=O)N/N=C/c1ccc(F)cc1)c1cccc(CN(CCO)CCO)c1` [Compound 550, 3-{[Bis-(2-hydroxy-ethyl)-amino]-methyl}-N-[4-chloro-2-(4-fluoro-benzylidene-hydrazinocarbonyl)-phenyl]-benzamide] yielded an inhibition at 300 µM of 78.9%.
The compound `CCN(CC)CCNCc1cccc(C(=O)Nc2c(C)csc2C(=O)N/N=C/c2cccc(F)c2)c1` [Compound 538, 3-[(2-Diethylamino-ethylamino)-methyl]-N-[2-(3-fluoro-benzylidene-hydrazinocarbonyl)-4-methyl-thiophen-3-yl]-benzamide] returned an inhibition at 300 µM of 30.3%.
